Test results reported in patent publication US7481993B2, “Chelators for radioactively labeled conjugates comprising a stabilizing sidechain” (Schering AG, priority 2005, dated 2009).
Several values for one entry are separate records, joined by “and”; a condition that tells them apart may be missing. Equal entries are not always repeated. Values belong to the substance of their own block, whether it stands above or below them. * marks the point of attachment. Bz = O=C(c1ccccc1)*

Legend:
Assay type in all cases: physicochemical
[1] = Cysteine challenge stability of ^188Re chelator peptides; conditions: radiolabeled with ^188Re
Description: For the ^188Re radiolabeling, a peptide as the TFA salt was dissolved in saline at 1 mg/mL and 100 μg (100 μL) was added to a ^188Re placebo vial. To the vial was added 100 μg stannous chloride dihydrate. The vial was reconstituted with 0.9 mL rhenium ^188Re sodium perrhenate containing approximately 20 mCi and saline such that the final preparation volume was 1.5 mL. The vial was heated in a boiling water bath for 15 minutes and cooled at room temperature for 10 minutes. Finally 1 mL of an antioxidant stabilizer solution containing 10 mg gentisic acid sodium salt monohydrate and 20 mg ascorbic acid was added to the vial.
(§1) The radiochemical purity (RCP) of the ^99mTc or ^188Re peptides was measured by gradient reversed phase HPLC using a Eurosphere-100 C18 HPLC column and 0.1% TFA mobile phases moderated with acetonitrile. Radioactive components were detected in the HPLC system using an in-line radiometric detector. Under the gradient conditions employed radiolabeled impurities (for example: ^99mTc glucoheptonate, ^99mTc edetate, and ^99mTc pertechnetate) eluted early (between 1 and 4 minutes), while the radiolabeled peptides eluted much later (between 8 and 20 minutes). In general, two isomeric radiometal complexes were observed, and the HPLC RCP was measured as the sum of the percent areas of the peaks corresponding to the two complexes. Radiochemical purity results for each of compounds are summarized in the examples that follow.
(§2) To ^99mTc radiolabelled peptide preparations described in Example 3 was added 150 μg of cysteine (approximately a 7-fold molar excess over peptide), and the preparations were stored at room temperature and monitored by HPLC for up to 12 hours. The amount of ^99mTc cysteine formed over time was noted. The initial HPLC analysis was started within 5 minutes of adding cysteine. In all cysteine challenge studies, a chelator compound containing a stabilizing sidechain was screened vs. the corresponding control chelator compound containing no sidechain. The relative amount of ^99mTc cysteine formed over time correlates inversely with the stability of the chelator (ie. less ^99mTc cysteine indicates higher chelator stability).
Some of the N^1—N^2-Cys (N^1, N^2=independently any amino acid) model chelator peptides described in Example 7 were radiolabeled with ^188Re and screened in the cysteine challenge experiment described in Example 4. Two chelators (See FIG. 4) were compared directly to the control chelator containing no stabilizing sidechain. In these studies, the products were monitored for 6 hours. Results in Table 8 represent % Peptide complexed to ^188Re (ie. 100%−the amount of ^188Re cysteine) vs. time.

[2] = Cysteine challenge stability of ^99mTc chelator peptides; conditions: N1-N2-Cys triamide thiol chelators; for % Peptide Complexed to ^99mTc Initial: 150 μg cysteine, room temperature, Initial (within 5 minutes); for % Peptide Complexed to ^99mTc 2 h / % Peptide Complexed to ^99mTc 4 h / % Peptide Complexed to ^99mTc 6 h / % Peptide Complexed to ^99mTc 8 h / % Peptide Complexed to ^99mTc 10 h / % Peptide Complexed to ^99mTc 12 h: cysteine challenge
Description: (§3) For the ^99mTc radiolabeling, a peptide as the TFA salt was dissolved in saline at 1 mg/mL and 100 μg (100 μL) was added to a ^99mTc placebo vial. The vial was reconstituted with 0.9 mL technetium ^99mTc sodium pertechnetate containing approximately 20 mCi and saline such that the final preparation volume was 1.1 mL. The vial was heated in a boiling water bath for 10 minutes and cooled at room temperature for 10 minutes.
as §1, §2
Several model chelator peptides were prepared with an N^1—N^2-Cys (N^1, N^2=independently any amino acid) amino acid sequence capable of complexing technetium as a triamide thiol chelator. Various stabilizing sidechains were substituted into the N^1—N^2-Cys chelator in two positions R1 and R2 as depicted in FIG. 4. The compounds were screened in the cysteine challenge experiment described in Example 4. Several experiments were conducted where 1-2 chelators were compared directly to a control chelator containing no stabilizing sidechain (compound GoC1 was also analyzed alone in a further study). Results in Table 5 represent % Peptide complexed to ^99mTc (ie. 100%−the amount of ^99mTc cysteine) vs. time.
Several model chelator peptides were prepared with an (β)Dap-N^2-Cys (N^2=any amino acid) amino acid sequence capable of complexing technetium as an amine diamide thiol chelator. This chelator is the chelator in the somatostatin peptides that were evaluated in Examples 5 and 6. Various stabilizing sidechains were substituted into the (β)Dap-N^2-Cys chelator in two positions R3 and R4 as depicted in FIG. 5. The compounds were screened in the cysteine challenge experiment described in Example 4. Several experiments were conducted where 1-2 chelators were compared directly to a control chelator containing no stabilizing sidechain. Results in Table 6 are the same as described in Example 7.
Two model chelator peptides were prepared with a ma-N^1—N^2 (Ma=mercaptoacetyl; N^1, N^2=independently any amino acid) amino acid sequence capable of complexing technetium as a triamide thiol chelator. This chelator has the thiol donor group at the N-terminus of the peptide. A stabilizing sidechain was substituted into the ma-N^1—N^2 chelator in position R5 as depicted in FIG. 6. The compounds were radiolabeled according to Example 3 with the exception that additional NaOH was added to bring the pH of the preparation up to pH 8.5. […]

[3] = HPLC radiochemical purity (RCP) stability of ^99mTc radiolabeled somatostatin peptides
Description: Lyophilized kit “placebo” vials were prepared containing 5 mg sodium glucoheptonate dihydrate, 100 μg edetate disodium dihydrate, and either 50 μg (^99mTc placebo) or 1000 μg (^188Re placebo) stannous chloride dihydrate. The formulations were adjusted to pH 7.4 prior to lyophilization.
as §3, §1
Somatostatin peptides were prepared with varying sidechains in the chelator portion of the compounds as described in FIG. 2. The sidechains varied in length from 0 to 5 atoms. These peptides have an amine-diamide-thiol chelator of the (β)Dap-N^2-Cys type (N^2=any amino acid). Each of the peptides were radiolabeled and monitored for HPLC stability out to 9 hours according the procedures described in Example 3.
Analogs to a commercial lung cancer imaging radiopharmaceutical (NeoTect®) were prepared to investigate the influence of the stabilizing sidechain (D)-CH2CH2CH2NH2 as described in FIG. 3. These peptides have an amine-diamide-thiol chelator of the (β)Dap-N^2-Cys type (N^2=any amino acid). The compound with N^2=Lys (sidechain=(L)-CH2CH2—CH2CH2NH2) is the peptide in the commercial radiopharmaceutical product. Each of the peptides were radiolabeled and monitored for HPLC stability out to 18 hours according to the procedures described in Example 3.

[4] = ^99mTc labeled somatostatin peptide, (β)Dap-N2-Cys chelator, sum of percent areas of the two complex peaks
[5] = ^99mTc labeled somatostatin peptide, (β)Dap-N2-Cys chelator

Substance: Bz-Gly-Gly-Glu-Cys-Ala.amide (Bz-GGECA-NH2; SMILES C[C@H](NC(=O)[C@H](CS)NC(=O)[C@H](CCC(=O)O)NC(=O)CNC(=O)CNC(=O)c1ccccc1)C(N)=O)
% Peptide Complexed to ^188Re ([1]; 1.5 h): 94.0%
% Peptide Complexed to ^188Re ([1]; 3 h): 90.5%
% Peptide Complexed to ^188Re ([1]; 4.5 h): 89.7%
% Peptide Complexed to ^188Re ([1]; 6 h): 90.2%
% Peptide Complexed to ^188Re ([1]; N1-N2-Cys chelators, Initial): 98.0%
% Peptide Complexed to ^99mTc Initial [2]: 100%
% Peptide Complexed to ^99mTc 2 h [2]: 88.9%
% Peptide Complexed to ^99mTc 4 h [2]: 84.5%
% Peptide Complexed to ^99mTc 6 h [2]: 80.3%
% Peptide Complexed to ^99mTc 8 h [2]: 75.7%
% Peptide Complexed to ^99mTc 10 h [2]: 74.1%
% Peptide Complexed to ^99mTc 12 h [2]: 69.0%

Substance: Bz-Gly-Gly-Gly-Cys-Ala.amide (Bz-GGGCA-NH2; SMILES C[C@H](NC(=O)[C@H](CS)NC(=O)CNC(=O)CNC(=O)CNC(=O)c1ccccc1)C(N)=O) [GGC1, control chelator, no stabilizing sidechain]
% Peptide Complexed to ^188Re ([1]; 1.5 h): 80.1%
% Peptide Complexed to ^188Re ([1]; 3 h): 61.4%
% Peptide Complexed to ^188Re ([1]; 4.5 h): 50.2%
% Peptide Complexed to ^188Re ([1]; 6 h): 47.7%
% Peptide Complexed to ^188Re ([1]; N1-N2-Cys chelators, Initial): 100%
% Peptide Complexed to ^99mTc Initial [2]: 98.2% and 98.8% and 96.9%
% Peptide Complexed to ^99mTc 2 h [2]: 83.4% and 83.6% and 85.2%
% Peptide Complexed to ^99mTc 4 h [2]: 83.5% and 74.0% and 71.7%
% Peptide Complexed to ^99mTc 6 h [2]: 74.3% and 72.0%
% Peptide Complexed to ^99mTc 8 h [2]: 69.8% and 68.3% and 61.7%
% Peptide Complexed to ^99mTc 10 h [2]: 57.9% and 65.0% and 60.0%
% Peptide Complexed to ^99mTc 12 h [2]: 60.7% and 49.7%

Substance: cyclo-[(N-Me)Phe-Tyr-(D)Trp-Lys-Val-Hcy]-CH2CO.(β)Dap-(D)Orn-Cys-Lys-NH2 [-(β)Dap-(D)Orn-Cys-Lys-NH2]
HPLC RCP 0.5 hours ([3]; ^99mTc labeled NeoTect analogs): 96.8%
HPLC RCP 3 hours ([3]; ^99mTc labeled NeoTect analogs): 94.1%
HPLC RCP 6 hours ([3]; ^99mTc labeled NeoTect analogs): 91.3%
HPLC RCP 9 hours ([3]; ^99mTc labeled NeoTect analogs): 89.8%
HPLC RCP 18 hrs. ([3]; ^99mTc labeled NeoTect analogs): 81.9%

Substance: cyclo-[(N-Me)Phe-Tyr-(D)Trp-Lys-Val-Hcy]-CH2CO.(β)Dap-Gly-Cys-Lys-NH2 [-(β)Dap-Gly-Cys-Lys-NH2]
HPLC RCP 0.5 hours ([3]; ^99mTc labeled NeoTect analogs): 92.3%
HPLC RCP 3 hours ([3]; ^99mTc labeled NeoTect analogs): 84.9%
HPLC RCP 6 hours ([3]; ^99mTc labeled NeoTect analogs): 85.6%
HPLC RCP 9 hours ([3]; ^99mTc labeled NeoTect analogs): 81.3%
HPLC RCP 18 hrs. ([3]; ^99mTc labeled NeoTect analogs): 76.0%

Substance: cyclo-[Tyr-(D)Trp-Lys-Thr-Phe-(N-Me)Hcy]-CH2CO.(β)Dap-Gly-Cys-Thr-Ser [—H]
HPLC RCP 0.5 hours [3, 4]: 89.7%
HPLC RCP 3 hours [3, 5]: 84.8%
HPLC RCP 6 hours [3, 5]: 83.7%
HPLC RCP 9 hours [3, 5]: 80.2%

More lines, now with the values ahead:

HPLC RCP 0.5 hours ([3]; ^99mTc labeled NeoTect analogs): 93.9%
HPLC RCP 3 hours ([3]; ^99mTc labeled NeoTect analogs): 91.0%
HPLC RCP 6 hours ([3]; ^99mTc labeled NeoTect analogs): 85.2%
HPLC RCP 9 hours ([3]; ^99mTc labeled NeoTect analogs): 81.8%
HPLC RCP 18 hrs. ([3]; ^99mTc labeled NeoTect analogs): 75.7%
Substance: cyclo-[(N-Me)Phe-Tyr-(D)Trp-Lys-Val-Hcy]-CH2CO.(β)Dap-Lys-Cys-Lys-NH2 [-(β)Dap-Lys-Cys-Lys-NH2, reference compound]

HPLC RCP 0.5 hours [3, 4]: 88.5%
HPLC RCP 3 hours [3, 5]: 86.6%
HPLC RCP 6 hours [3, 5]: 84.1%
HPLC RCP 9 hours [3, 5]: 82.6%
Substance: cyclo-[Tyr-(D)Trp-Lys-Thr-Phe-(N-Me)Hcy]-CH2CO.(β)Dap-(α)Dap-Cys-Thr-Ser [—CH2NH2]

HPLC RCP 0.5 hours [3, 4]: 94.3%
HPLC RCP 3 hours [3, 5]: 91.6%
HPLC RCP 6 hours [3, 5]: 90.7%
HPLC RCP 9 hours [3, 5]: 89.2%
Substance: cyclo-[Tyr-(D)Trp-Lys-Thr-Phe-(N-Me)Hcy]-CH2CO.(β)Dap-Dab-Cys-Thr-Ser [—CH2CH2NH2]

HPLC RCP 0.5 hours [3, 4]: 83.4%
HPLC RCP 3 hours [3, 5]: 83.4%
HPLC RCP 6 hours [3, 5]: 81.3%
HPLC RCP 9 hours [3, 5]: 81.0%
Substance: cyclo-[Tyr-(D)Trp-Lys-Thr-Phe-(N-Me)Hcy]-CH2CO.(β)Dap-Lys-Cys-Thr-Ser [—CH2CH2CH2CH2NH2]

HPLC RCP 0.5 hours [3, 4]: 95.0%
HPLC RCP 3 hours [3, 5]: 93.7%
HPLC RCP 6 hours [3, 5]: 92.5%
HPLC RCP 9 hours [3, 5]: 92.3%
Substance: cyclo-[Tyr-(D)Trp-Lys-Thr-Phe-(N-Me)Hcy]-CH2CO.(β)Dap-Met-Cys-Thr-Ser [—CH2CH2SCH3]

HPLC RCP 0.5 hours [3, 4]: 97.0%
HPLC RCP 3 hours [3, 5]: 95.2%
HPLC RCP 6 hours [3, 5]: 94.9%
HPLC RCP 9 hours [3, 5]: 94.9%
Substance: cyclo-[Tyr-(D)Trp-Lys-Thr-Phe-(N-Me)Hcy]-CH2CO.(β)Dap-Orn-Cys-Thr-Ser [—CH2CH2CH2NH2]
